Measurements from patent US20210134398A1, “Combinatorial Chemistry Computational System and Enhanced Selection Method” (Southern Methodist University, priority 2019, published 2021).

Legend:
[1] = test system: P-gp overexpressing prostate cancer cell line, DU145TXR; test: MTT cell viability assay, resensitization to paclitaxel; type: cell-based, human; details: Homo sapiens; paclitaxel alone, DU145TXR, 48 hours; read-out: IC50 PTX, PTX alone
Excerpt: The Group 1 ChemGen/docking routine produced variants of P-gp inhibitor 29 resensitize a multidrug resistant, P-gp overexpressing prostate cancer cell line to paclitaxel. The mitochondrial reduction potential of cells is often used as an indicator for cell viability using MTT assays^4. Using these assays it was observed that the five Group 1 derivatives of 29 predicted through the ChemGen/docking routine and synthesized here, 216, 227, 231, 541 and 551, re-sensitized the P-gp overexpressing prostate cancer cell line, DU145TXR^33, to the chemotherapeutic, paclitaxel (FIG. 12, showing results of assays at concentrations of 3 μM, 5 μM, 7 μM, and 10 μM).
Cytotoxicity of the chemotherapeutic, paclitaxel (PTX) to P-gp overexpressing prostate cancer cells, DU145TXR, was determined in the absence and presence of the ChemGen designed 29-variants, 216, 227, 231, 541 and 551. For each experimental compound IC50 values of PTX alone or in the presence of inhibitors, fold improvement of PTX sensitivity in the presence of inhibitor, and fold improvement of PTX sensitivity by variants compared to parental compound 29 are given.
Effects of Group 2 variants on the paclitaxel sensitivity of P-glycoprotein overexpressing prostate cancer cells, DU145TXR. MTT assays were again used to assess the efficacy of the new structural 29-variants on sensitizing the chemotherapy-resistant prostate cancer cell line, DU145TXR, to paclitaxel, at concentrations of 3 μM, 5 μM, 7 μM, and 10 μM as shown in FIG. 15 and Table 4.
MTT cell viability assay. Cells were trypsinized from monolayers and seeded with 3000 cells in 150 μL of complete medium in a 96 well plate. After 24 hours, cells were treated for 48 hours with paclitaxel (Acros Organics, NJ) and/or P-gp inhibitory compounds dissolved in DMSO, or DMSO controls. All additions were diluted into complete medium. After 48 hours of treatment, MTT assays were performed as described^41 using 5 mg/mL of MTT (Acros Organics, NJ) solution prepared in PBS (137 mM NaCl, 2.7 mM KCl, 10 mM Na2HPO4, 1.8 mM KH2PO4, pH 7.4). After 4 hours of incubation with MTT, the media was removed and the formazan crystals were dissolved in 100 μL of DMSO. The absorbance at 570 nm was then measured using a BioTek Cytation 5 imaging multi-mode reader (Bio-Tek, Winooski, Vt.). Percent viability was calculated using DMSO treated cells as representative for 100% viability, according to Equation 1. Background absorbance was determined using MTT and complete medium without cells and subtracted from all the test values. Equation 1:
The results were plotted as the mean with standard deviation (SD) of eight replicates per concentration from at least two independent experiments with n=8. The graphical representations and IC50 values were determined using four parameter variable slope non-linear regression, using the following equation: Y=bottom+(top-bottom)/(1+10^((log IC50−X)*Hill Slope) (GraphPad Prism™, La Jolla Calif., USA, Version 6.05). The reported “fold sensitization” was calculated as follows, per Equation 2: […]

[2] = target: P-gp (P-gp over-expressing cell line, DU145TXR) (Homo sapiens, UniProt P08183); test: Cellular accumulation of experimental compounds by LC-MS/MS with and without tariquidar
Chain of P-gp (P-gp over-expressing cell line, DU145TXR) (P08183 whole entry): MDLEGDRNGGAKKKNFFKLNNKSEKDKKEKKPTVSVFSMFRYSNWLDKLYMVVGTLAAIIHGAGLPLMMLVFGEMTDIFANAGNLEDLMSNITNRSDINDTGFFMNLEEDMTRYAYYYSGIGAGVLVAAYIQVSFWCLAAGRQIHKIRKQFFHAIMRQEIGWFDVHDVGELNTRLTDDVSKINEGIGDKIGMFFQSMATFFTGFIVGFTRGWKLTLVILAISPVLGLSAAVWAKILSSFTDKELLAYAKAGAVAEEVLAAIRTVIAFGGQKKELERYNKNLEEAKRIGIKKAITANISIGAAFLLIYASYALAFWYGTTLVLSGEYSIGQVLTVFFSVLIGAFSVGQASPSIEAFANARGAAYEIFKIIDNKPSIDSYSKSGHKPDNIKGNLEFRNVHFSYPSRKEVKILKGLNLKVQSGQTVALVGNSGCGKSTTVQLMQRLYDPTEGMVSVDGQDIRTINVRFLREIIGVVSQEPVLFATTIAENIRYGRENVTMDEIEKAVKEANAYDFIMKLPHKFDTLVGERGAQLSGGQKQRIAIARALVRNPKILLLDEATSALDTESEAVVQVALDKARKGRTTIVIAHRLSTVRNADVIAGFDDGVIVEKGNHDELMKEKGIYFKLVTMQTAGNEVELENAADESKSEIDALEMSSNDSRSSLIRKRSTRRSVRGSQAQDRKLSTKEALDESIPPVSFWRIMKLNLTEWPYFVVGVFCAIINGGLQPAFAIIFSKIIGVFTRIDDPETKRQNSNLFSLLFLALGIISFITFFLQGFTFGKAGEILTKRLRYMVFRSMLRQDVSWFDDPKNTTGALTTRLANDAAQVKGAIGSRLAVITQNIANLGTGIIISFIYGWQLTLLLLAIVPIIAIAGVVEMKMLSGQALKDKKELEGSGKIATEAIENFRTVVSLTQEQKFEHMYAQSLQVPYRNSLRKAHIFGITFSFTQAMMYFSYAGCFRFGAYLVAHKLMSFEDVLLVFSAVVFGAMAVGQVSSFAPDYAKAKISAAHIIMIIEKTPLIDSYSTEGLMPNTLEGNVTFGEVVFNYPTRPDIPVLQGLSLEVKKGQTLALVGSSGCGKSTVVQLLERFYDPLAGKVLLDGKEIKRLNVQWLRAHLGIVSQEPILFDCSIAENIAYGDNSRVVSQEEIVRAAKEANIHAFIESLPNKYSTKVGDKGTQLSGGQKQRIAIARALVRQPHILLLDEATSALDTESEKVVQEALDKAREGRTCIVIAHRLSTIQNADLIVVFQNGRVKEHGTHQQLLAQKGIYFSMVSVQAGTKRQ
Procedure: Stimulation of basal ATPase by 29-variants was used as an indicator that a compound may be a P-gp transport substrate. Effects on stimulated P-gp ATPase activity indicated whether a compound directly interfered with ATP usage by the protein (***, p<0.001; **, p<0.01; *, p<0.1; NS, not significant). Quantitative cellular accumulation of 29-variants was performed using LC-MS/MS and is presented as a ratio of the cellular amounts of 29-variants in the presence of P-gp inhibitor, tariquidar, divided by amounts accumulated in its absence. […] Binding of an ATP analog, SL-ATP, to P-gp was used to determine whether ATP binding to P-gp was affected by the 29-variants. Values +/−standard deviations are shown for at least three different P-gp preparations and three independent SL-ATP titration experiments. The values for SL-ATP binding in the presence of 29 were taken directly from Brewer et al. (2014).
Intracellular accumulation of compound 29 variants. Cell accumulation assays for each of the 29 variants were performed as in reference^28 to more directly assess whether the compounds were indeed transport substrates for P-gp.
Cellular Accumulation Assays for Experimental P-gp Inhibitors. Cells used (DU145TXR), cell culturing, cell exposure to compounds, cellular handling and extractions were performed as described in^28. LC-MS/MS methods were performed as described in^71 and as modified in^28.

| SMILES | IC50 [1] | Transport substrate for P-gp ([2]; DU145TXR accumulation with/without tariquidar (and basal ATPase)) | Intracellular accumulation in absence vs presence of tariquidar (in words) ([2]; DU145TXR, LC-MS/MS) |
| --- | --- | --- | --- |
| CC(=O)O[C@H]1C(=O)[C@@]2(C)[C@H]([C@H](OC(=O)c3ccccc3)[C@]3(O)C[C@H](OC(=O)[C@H](O)[C@@H](NC(=O)c4ccccc4)c4ccccc4)C(C)=C1C3(C)C)[C@]1(OC(C)=O)CO[C@@H]1C[C@@H]2O [PTX, paclitaxel, reference compound] | 2120 nM |  |  |
| COc1cccc2c1C(=O)c1c(O)c3c(c(O)c1C2=O)C[C@@](O)(C(C)=O)C[C@@H]3O[C@H]1C[C@H](N)[C@H](O)[C@H](C)O1 [Daunorubicin, reference compound] |  | good transport substrate for P-gp | very strong cellular accumulation |
